From article PMC8640678 (Journal of Pesticide Science, 2021)

Key:
HcbA3C-His [1] = test: spectrofluorometric titration; format: binding, Nocardioides sp. PD653; conditions: oxidized FMN; no NADH stated; cited from earlier work
HcbA3C-His [2] = test: NADH oxidation at […] nm, steady-state fit; format: biochemical, Nocardioides sp. PD653; conditions: 1–8 µM FMN, 10–120 µM NADH, 25 nM enzyme; ping-pong; cited from earlier work
HcbB3 with HcbB2 = biological target: T1, HcbB3 with HcbB2 (Nocardioides sp. PD653, UniProt A0A1V1W0L1); test: PCP dissipation by recombinant E. coli cells; format: cell-based; conditions: co-expressed HcbB2; whole cells
T1 sequence (A0A1V1W0L1 1-506): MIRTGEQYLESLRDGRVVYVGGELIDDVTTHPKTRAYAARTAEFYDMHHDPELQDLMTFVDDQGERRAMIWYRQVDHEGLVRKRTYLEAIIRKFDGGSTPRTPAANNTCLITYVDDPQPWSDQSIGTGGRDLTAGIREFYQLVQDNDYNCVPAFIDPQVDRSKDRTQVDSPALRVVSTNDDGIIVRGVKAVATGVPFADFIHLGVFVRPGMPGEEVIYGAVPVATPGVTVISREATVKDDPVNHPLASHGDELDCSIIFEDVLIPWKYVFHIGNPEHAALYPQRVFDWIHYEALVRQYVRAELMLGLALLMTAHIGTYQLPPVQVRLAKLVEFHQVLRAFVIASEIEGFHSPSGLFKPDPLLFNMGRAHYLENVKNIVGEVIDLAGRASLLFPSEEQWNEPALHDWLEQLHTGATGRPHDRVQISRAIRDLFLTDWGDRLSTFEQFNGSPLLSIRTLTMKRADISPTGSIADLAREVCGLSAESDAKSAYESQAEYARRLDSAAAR

Row | Structure (SMILES) | Kd (HcbA3C-His [1]) | Km (HcbA3C-His [2]) | PCP dissipation by recombinant E. coli cells (HcbB3 with HcbB2)
1 | Cc1cc2nc3c(=O)[nH]c(=O)nc-3n(C[C@H](O)[C@H](O)[C@H](O)COP(=O)(O)O)c2cc1C [FMN] | 750 ± 170 nM | 4.43 ± 0.69 µM | 
2 | NC(=O)C1=CN([C@@H]2O[C@H](COP(=O)(O)OP(=O)(O)OC[C@H]3O[C@@H](n4cnc5c(N)ncnc54)[C@H](O)[C@@H]3O)[C@@H](O)[C@H]2O)C=CC1 [NADH] |  | 51.7 ± 11.6 µM | 
3 | Oc1c(Cl)c(Cl)c(Cl)c(Cl)c1Cl [PCP] |  |  | co-expression of hcbB1 and hcbB3 or hcbB2 and hcbB3 led to significant PCP dissipation activity
